The test system of experiment [1] is HCMV strain TB40/E. The experiment is classed as cell-based, Human cytomegalovirus. Particulars: HFFs. How it is done:
For screening the PDGFRα peptides for their neutralizing capacity a recently developed Gaussia-Luciferase-Assay was utilized (10). The Gaussia luciferase is secreted into the cell culture supernatants, therefore it is not necessary to fix the cells and instead a sample of the Gaussia containing supernatant is taken and mixed with the substrate coelenterazine (PjK) at a final concentration of 0.2 μg/ml. The resulting light emission was detected at 495 nm. For all obtained values background signals were subtracted and neutralization efficiency was determined relative to the control samples which contained only virus, no peptide.
Cell free preparations of strain TB40/E were pre-incubated with the individual peptides at concentrations reaching from 0.05-50 nmol/ml for 2 h and the mixtures were then incubated with HFF cultures in a 96-well format. The various peptides differed greatly regarding their inhibitory potential with a region between aa120 and aa280 being absolutely ineffective and the peptides surrounding this region having the highest anti-HCMV effect (FIG. 9).

In experiment [2] the test system is HCMV strain TB40/E. As to the kind of experiment: Inhibition of infection of fibroblasts (HFFs), IE antigen immunofluorescence. The experiment is classed as cell-based, Human cytomegalovirus. Particulars: increasing concentrations, pre-incubated 2 h. How it is done:
For testing the inhibitory effect of antivirals or fusion proteins on HCMV, the respective inhibitors were diluted in MEM and mixed with infectious supernatants, the mixtures were incubated for 2 h at 37° C. before addition to the cells. For fibroblast infection the virus-inhibitor mixture was incubated on the cells for about 24 h. If endothelial cells were included in the experiment, all cells were supplied with their respective maintenance media after 2 h, and further incubated for 22 h.
Infection efficiencies were determined by immunofluorescence staining for viral proteins. For fixation and permeabilization the cells were incubated with 80% acetone for 5 min. For HCMV infected cells the immediate early proteins pUL122/123 were detected with a mouse monoclonal (clone E13, Argene) and visualized using a Cy3 conjugated goat anti-mouse secondary antibody (Jackson Immuno Research). HSV infected cultures were stained 6 h post infection for ICP0 using a mouse monoclonal (clone 11060, Santa Cruz) and goat anti-mouse AF488 (life technologies). DAPI was used to locate nuclei. Infection rates were determined by counting the number of cell nuclei positive for the respective viral protein, as well as the total number of nuclei per image. For each condition three images were evaluated.
To test this, the inventors pre-incubated cell free preparations of HCMV strain TB40/E with variable concentrations of soluble PDGFR-alpha-Fc chimeras for 2 h before adding them to HFFs and HECs. After 2 h the virus was removed and replaced with the appropriate cell culture medium for an overnight incubation. Cultures were then fixed, and the fraction of infected cells was determined by indirect immunofluorescence staining of viral IE antigens.
Cell free preparations of TB40/E were pre-incubated with increasing concentrations of the various Fc chimeras for 2 h. HFFs were then incubated with the mixtures for 2 h followed by a medium exchange and an overnight incubation.

The test system of another experiment is HCMV particles. As to the kind of experiment: Binding of chimeric receptors (Fc-fusion proteins) to HCMV particles. Details: species or system Human cytomegalovirus. The settings on record: particles pre-incubated with Fc-fusion protein, attached to cells on ice. How it is done:
To assess the binding of Fc-Proteins to virus particles, HFFs were seeded at a density of 40,000 cells per well on IBIDI plates 1 day prior to infection. Virus preparations were pre-incubated with Fc-fusion proteins at a final concentration of 500 ng/ml for 2 h at 37° C. The virus/Fc-protein mixtures were incubated with the cells for 1.5 h on ice. Before fixation with 80% acetone, the cells were washed once with MEM. For staining of viral particles mouse hybridoma recognizing the abundant viral protein pp150 (generously provided by W. Britt, Sanchez 2000) used.
The inventors tested this by staining of adsorbed virus particles with the Fc-fusion proteins. […] Virus particles were stained for the capsid protein pp150 and bound Fc-fusion proteins.
The inventors analyzed the mode of inhibition by PDGFR-alpha-Fc. For this, the binding of different concentrations of the fusion protein was quantified by assessing the particle intensities after staining with anti-human antibody (FIG. 5). […] (FIGS. 4 and 5).

Ends that are not written are not given here.

Broadly, the EC50 is the concentration needed to bring the measured effect to its halfway point. Regarding “GRHIYIYVPDPDVAFVPLGMTDYLVIVEDDDSAIIPCRTT [peptide between aa90 and aa130]”, in the experiment with HCMV strain TB40/E [1] (10 nmol/ml), the “inhibition at 10 nmol/ml” value is listed as “almost complete inhibition”. In addition, the EC50 in the experiment with HCMV strain TB40/E [1] (pre-incubated 2 h, read-out: EC50 of inhibition of HCMV infection by peptide) is 2000 nM.

B1: PDGFR-beta-Fc: recombinant Fc-fusion protein obtained from R&D (385-PR-100), comparison chimera (protein)
chain: LVVTPPGPELVLNVSSTFVLTCSGSAPVVWERMSQEPPQEMAKAQDGTFSSVLTLTNLTGLDTGEYFCTHNDSRGLETDERKRLYIFVPDPTVGFLPNDAEELFIFLTEITEITIPCRVTDPQLVVTLHEKKGDVALPVPYDHQRGFSGIFEDRSYICKTTIGDREVDSDAYYVYRLQVSSINVSVNAVQTVVRQGENITLMCIVIGNEVVNFEWTYPRKESGRLVEPVTDFLLDMPYHIRSILHIPSAELEDSGTYTCNVTESVNDHQDEKAINITVVESGYVRLLGEVGTLQFAELHRSRTLQVVFEAYPPPTVLWFKDNRTLGDSSAGEIALSTRNVSETRYVSELTLVRVKVAEAGHYTMRAFHEDAEVQLSFQLQINVPVRVLELSESHPDSGEQTVRCRGRGMPQPNIIWSACRDLKRCPRELPPTLLGNSSEEESQLETNVTYWEEEQEFEVVSTLRLQHVDRPLSVRCTLRNAVGQDTQEVIVVPHSLPF
modifications: left off: a dimerising Fc or GST
notes: recombinant Fc-fusion protein obtained from R&D (385-PR-100), comparison chimera
Consider B1, for which, in the experiment with HCMV strain TB40/E [2], the “inhibitory potential of Fc chimeras on HCMV infection of HFFs” value is “neither PDGFR-beta-Fc nor EGFR-Fc had an effect”. In addition, the “binding of Fc-fusion protein to virus particles (anti-human antibody staining)” value with HCMV particles is reported as “visualized only those particles that were pre-treated with PDGFR-alpha-Fc”.

(Values after US11390661B2, “HCMV entry inhibitors” (priority 2016, dated 2022).)
